Experimental data published in PMC4492107 (Science signaling, 2015).

Biological target: T1, tcTERT (Tribolium castaneum TERT) (Tribolium castaneum, UniProt Q0QHL8)
T1 sequence (Q0QHL8 1-596): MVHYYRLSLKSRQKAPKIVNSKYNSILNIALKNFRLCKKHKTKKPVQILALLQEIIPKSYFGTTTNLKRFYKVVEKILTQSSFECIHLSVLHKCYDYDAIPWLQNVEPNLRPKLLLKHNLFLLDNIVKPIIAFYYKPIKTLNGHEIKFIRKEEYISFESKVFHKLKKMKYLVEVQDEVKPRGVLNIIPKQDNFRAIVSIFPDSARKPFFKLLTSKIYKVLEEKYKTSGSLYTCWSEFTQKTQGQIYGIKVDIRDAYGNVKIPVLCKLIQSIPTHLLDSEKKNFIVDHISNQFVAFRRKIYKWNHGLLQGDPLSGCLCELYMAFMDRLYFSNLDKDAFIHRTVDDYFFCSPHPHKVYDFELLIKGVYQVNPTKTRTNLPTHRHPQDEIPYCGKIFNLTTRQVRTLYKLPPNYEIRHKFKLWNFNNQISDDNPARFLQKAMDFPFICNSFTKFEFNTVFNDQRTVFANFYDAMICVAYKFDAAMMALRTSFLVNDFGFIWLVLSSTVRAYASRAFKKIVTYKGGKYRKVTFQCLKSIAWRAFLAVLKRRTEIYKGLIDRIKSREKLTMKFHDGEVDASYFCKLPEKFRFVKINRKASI
Assay: SPR with POPC:POPE:S1P
Assay type: binding

Kd: ~4.8 µM
Compound: CCCCCCCCCCCCC/C=C/[C@@H](O)[C@@H](N)COP(=O)(O)O [S1P, sphingosine 1-phosphate]
